Laboratory results as given in patent publication US11291640B2, “Endoxifen for the treatment of bipolar I disorder” (Jina Pharmaceuticals, Inc., priority 2020, dated 2022).
Where a name gives a salt, the structure may show the parent alone.

Tests used:
[1] = tested on: patients of bipolar I disorders; assay: Clinical study, total YMRS score at each visit; type: in vivo; settings: day 21 (EOT); patient with bipolar I disorders
Procedure: (§1) Clinical study of an enteric coated tablet comprising endoxifen citrate formulation was carried out by administering to the patient doses of 2 mg to 16 mg of endoxifen citrate in an enteric coated tablet once per day for at least 21 days according to the present application.
(§2) The clinical study was a multicenter, randomized, double-blind, double-dummy, active controlled, parallel study to assess the efficacy and safety of endoxifen enteric coated tablet 8 mg and divalproex sodium extended release tablet 1000 mg in patients of bipolar I disorders.
(§3) Total 228 patients were enrolled in the study. All 228 patients were qualified for safety and mITT population and 213 patients were qualified for PP population.

[2] = tested on: patients of bipolar I disorders; assay: Clinical study, MADRS score at each visit; type: in vivo; settings: day 21 (EOT); patient with bipolar I disorders
Procedure: as §1, §2, §3

[3] = tested on: patients of bipolar I disorders; assay: Clinical study, response time, remission time and therapeutic dose monitoring; type: in vivo; settings: from table 1 and 2
Procedure: The term “response time” means an early indicator of treatment efficacy and it is not more than 2 days of treatment according to the embodiments described herein.
The term “remission time” refers to an absence or minimal symptoms of both mania and depression, which is not more than 4 days of treatment according to the embodiments described herein. Remission is the target of acute treatment.
as §1, §2

PKC = settings: cited from earlier work

In the case of `CC/C(=C(\c1ccc(O)cc1)c1ccc(OCCNC)cc1)c1ccccc1` [Endoxifen, (Z)-1-(4-Hydroxyphenyl)-1-{4-[2-(monomethylamino)ethoxy]phenyl}-2-pheny 1-1-butene citrate], the “improvement in the YMRS score” value [1] is reported as “significant and sustained improvements”, the “improvement in the MADRS score” value [2] is reported as “significant and sustained improvements” and the “early response time of the treatment” value [3] is reported as “at least 2 days”. The “remission time of treatment” value [3] was “not more than 4 days” and the “potency in inhibiting the PKC activity compared to tamoxifen” value (PKC) was “four-fold higher potency”.
